According to the NIST ThermoML archive (doi:10.1021/je100687x):

Experiment: xn = mol fraction of the nth substance listed
Settings: 101 kPa, Liquid; for electrical conductivity: Crison GLP 31+ conductivimeter

CCCCn1cc[n+](C)c1.F[B-](F)(F)F [1-butyl-3-methylimidazolium tetrafluoroborate] + CCO
Settings | electrical conductivity [S/m] | viscosity [mPa·s]
288.15 K, x2 = 0 | – | 173.5
288.15 K, x2 = 0.0765 | – | 121.4
288.15 K, x2 = 0.199 | – | 69.06
288.15 K, x2 = 0.2894 | – | 45.23
288.15 K, x2 = 0.3918 | – | 28.39
288.15 K, x2 = 0.4976 | – | 18.13
288.15 K, x2 = 0.6001 | – | 12.35
288.15 K, x2 = 0.717 | – | 7.86
288.15 K, x2 = 0.7998 | – | 5.676
288.15 K, x2 = 0.9014 | – | 3.06
298.15 K, x2 = 0 | 0.352 | 99.2
298.15 K, x2 = 0.0368 | 0.393 | –
298.15 K, x2 = 0.0765 | – | 72.49
298.15 K, x2 = 0.1136 | 0.522 | –
298.15 K, x2 = 0.1492 | 0.594 | –
298.15 K, x2 = 0.199 | – | 44.05
298.15 K, x2 = 0.2894 | – | 30.15
298.15 K, x2 = 0.2992 | 0.939 | –
298.15 K, x2 = 0.3918 | – | 19.7
298.15 K, x2 = 0.4162 | 1.268 | –
298.15 K, x2 = 0.4976 | – | 12.97
298.15 K, x2 = 0.5137 | 1.551 | –
298.15 K, x2 = 0.5866 | 1.729 | –
298.15 K, x2 = 0.6001 | – | 9.038
298.15 K, x2 = 0.6426 | 1.826 | –
298.15 K, x2 = 0.6863 | 1.871 | –
298.15 K, x2 = 0.717 | – | 5.25
298.15 K, x2 = 0.7204 | 1.874 | –
298.15 K, x2 = 0.7498 | 1.859 | –
298.15 K, x2 = 0.7947 | 1.745 | –
298.15 K, x2 = 0.7998 | – | 4.286
298.15 K, x2 = 0.8394 | 1.564 | –
298.15 K, x2 = 0.8763 | 1.343 | –
298.15 K, x2 = 0.8835 | 1.297 | –
298.15 K, x2 = 0.8908 | 1.249 | –
298.15 K, x2 = 0.9014 | – | 2.371
298.15 K, x2 = 0.9034 | 1.155 | –
298.15 K, x2 = 0.9134 | 1.077 | –
298.15 K, x2 = 0.9217 | 1.01 | –
298.15 K, x2 = 0.9287 | 0.94 | –
298.15 K, x2 = 0.9347 | 0.874 | –
298.15 K, x2 = 0.9399 | 0.825 | –
298.15 K, x2 = 0.9493 | 0.733 | –
298.15 K, x2 = 0.9564 | 0.658 | –
298.15 K, x2 = 0.9617 | 0.597 | –
298.15 K, x2 = 0.9668 | 0.536 | –
298.15 K, x2 = 0.9755 | 0.423 | –
298.15 K, x2 = 0.9897 | 0.221 | –
298.15 K, x2 = 0.9916 | 0.194 | –
298.15 K, x2 = 0.9934 | 0.162 | –
298.15 K, x2 = 0.9972 | 0.0851 | –
308.15 K, x2 = 0 | – | 61.3
308.15 K, x2 = 0.0765 | – | 46.39
308.15 K, x2 = 0.199 | – | 29.81
308.15 K, x2 = 0.2894 | – | 21.18
308.15 K, x2 = 0.3918 | – | 14.45
308.15 K, x2 = 0.4976 | – | 9.836
308.15 K, x2 = 0.6001 | – | 7.026
308.15 K, x2 = 0.717 | – | 4.056
308.15 K, x2 = 0.7998 | – | 3.363
308.15 K, x2 = 0.9014 | – | 1.947
318.15 K, x2 = 0 | – | 40.4
318.15 K, x2 = 0.0765 | – | 31.43
318.15 K, x2 = 0.199 | – | 21.16
318.15 K, x2 = 0.2894 | – | 15.5
318.15 K, x2 = 0.3918 | – | 11.01
318.15 K, x2 = 0.4976 | – | 7.691
318.15 K, x2 = 0.6001 | – | 5.567
318.15 K, x2 = 0.717 | – | 3.252
318.15 K, x2 = 0.7998 | – | 2.723
318.15 K, x2 = 0.9014 | – | 1.641

CCCCCCn1cc[n+](C)c1.F[B-](F)(F)F [1-hexyl-3-methylimidazolium tetrafluoroborate] + CCO
Settings | electrical conductivity [S/m] | viscosity [mPa·s]
288.15 K, x2 = 0 | – | 357.5
288.15 K, x2 = 0.1 | – | 207.2
288.15 K, x2 = 0.197 | – | 118.9
288.15 K, x2 = 0.298 | – | 69.02
288.15 K, x2 = 0.3877 | – | 48.92
288.15 K, x2 = 0.4921 | – | 27.71
288.15 K, x2 = 0.6009 | – | 16.92
288.15 K, x2 = 0.7 | – | 9.866
288.15 K, x2 = 0.8002 | – | 5.545
288.15 K, x2 = 0.902 | – | 2.893
298.15 K, x2 = 0 | 0.126 | 190.9
298.15 K, x2 = 0.1 | – | 119.2
298.15 K, x2 = 0.197 | – | 72.6
298.15 K, x2 = 0.2439 | 0.33 | –
298.15 K, x2 = 0.298 | – | 43.77
298.15 K, x2 = 0.3877 | – | 32.06
298.15 K, x2 = 0.3981 | 0.565 | –
298.15 K, x2 = 0.4566 | 0.66 | –
298.15 K, x2 = 0.4921 | – | 18.86
298.15 K, x2 = 0.507 | 0.769 | –
298.15 K, x2 = 0.5491 | 0.877 | –
298.15 K, x2 = 0.5861 | 0.947 | –
298.15 K, x2 = 0.6009 | – | 12.09
298.15 K, x2 = 0.6189 | 1.034 | –
298.15 K, x2 = 0.645 | 1.083 | –
298.15 K, x2 = 0.6708 | 1.129 | –
298.15 K, x2 = 0.6938 | 1.17 | –
298.15 K, x2 = 0.7 | – | 7.513
298.15 K, x2 = 0.7145 | 1.206 | –
298.15 K, x2 = 0.733 | 1.216 | –
298.15 K, x2 = 0.7495 | 1.222 | –
298.15 K, x2 = 0.7648 | 1.244 | –
298.15 K, x2 = 0.7909 | 1.25 | –
298.15 K, x2 = 0.8002 | – | 4.191
298.15 K, x2 = 0.8217 | 1.225 | –
298.15 K, x2 = 0.8454 | 1.19 | –
298.15 K, x2 = 0.8637 | 1.144 | –
298.15 K, x2 = 0.8755 | 1.109 | –
298.15 K, x2 = 0.8857 | 1.07 | –
298.15 K, x2 = 0.8946 | 1.033 | –
298.15 K, x2 = 0.902 | – | 2.284
298.15 K, x2 = 0.9042 | 0.98 | –
298.15 K, x2 = 0.9133 | 0.929 | –
298.15 K, x2 = 0.9214 | 0.879 | –
298.15 K, x2 = 0.9267 | 0.832 | –
298.15 K, x2 = 0.9347 | 0.778 | –
298.15 K, x2 = 0.9437 | 0.702 | –
298.15 K, x2 = 0.9526 | 0.621 | –
298.15 K, x2 = 0.9593 | 0.57 | –
298.15 K, x2 = 0.9686 | 0.473 | –
298.15 K, x2 = 0.9758 | 0.393 | –
298.15 K, x2 = 0.9803 | 0.331 | –
298.15 K, x2 = 0.9858 | 0.262 | –
298.15 K, x2 = 0.9892 | 0.214 | –
298.15 K, x2 = 0.9934 | 0.147 | –
298.15 K, x2 = 0.996 | 0.102 | –
298.15 K, x2 = 0.9979 | 0.0636 | –
308.15 K, x2 = 0 | – | 110.3
308.15 K, x2 = 0.1 | – | 74.2
308.15 K, x2 = 0.197 | – | 46.59
308.15 K, x2 = 0.298 | – | 29.55
308.15 K, x2 = 0.3877 | – | 22.1
308.15 K, x2 = 0.4921 | – | 13.73
308.15 K, x2 = 0.6009 | – | 9.004
308.15 K, x2 = 0.7 | – | 5.487
308.15 K, x2 = 0.8002 | – | 3.278
308.15 K, x2 = 0.902 | – | 1.867
318.15 K, x2 = 0 | – | 68.5
318.15 K, x2 = 0.1 | – | 48.17
318.15 K, x2 = 0.197 | – | 32.05
318.15 K, x2 = 0.298 | – | 21.19
318.15 K, x2 = 0.3877 | – | 16.11
318.15 K, x2 = 0.4921 | – | 10.3
318.15 K, x2 = 0.6009 | – | 6.945
318.15 K, x2 = 0.7 | – | 4.498
318.15 K, x2 = 0.8002 | – | 2.636
318.15 K, x2 = 0.902 | – | 1.506
